Experimental data reported in the NIST ThermoML archive (doi:10.1016/j.jct.2008.01.007).
Numbers after ± are expanded uncertainties.

Assay: xn = mol fraction of the nth substance listed
Conditions: 101 kPa, Liquid

OCCN1CCOCC1 [4-morpholineethanol] + O
Conditions | mass density, 293.15 K [kg/m3] | mass density, 303.15 K [kg/m3] | mass density, 313.15 K [kg/m3] | mass density, 323.15 K [kg/m3] | mass density, 333.15 K [kg/m3] | viscosity, 293.15 K [mPa·s] | viscosity, 303.15 K [mPa·s] | viscosity, 313.15 K [mPa·s] | viscosity, 323.15 K [mPa·s] | viscosity, 333.15 K [mPa·s]
x1 = 0.0628 | 1041.44 ± 2.3 | 1033.11 ± 2.1 | 1024.47 ± 1.9 | 1017.66 ± 1.8 | 1012.27 ± 1.7 | 14.46 ± 1 | 9.721 ± 0.73 | 8.148 ± 0.63 | 6.767 ± 0.54 | 4.413 ± 0.39
x1 = 0.1126 | 1061.42 ± 2.6 | 1052.36 ± 2.5 | 1043.65 ± 2.3 | 1035.57 ± 2.2 | 1029.49 ± 2 | 22.98 ± 1.5 | 18.02 ± 1.2 | 13.55 ± 0.96 | 11.37 ± 0.83 | 9.233 ± 0.7
x1 = 0.1985 | 1078.87 ± 3 | 1069.04 ± 2.8 | 1060.34 ± 2.6 | 1052.34 ± 2.5 | 1044.12 ± 2.3 | 33.29 ± 2.2 | 27.47 ± 1.8 | 22.61 ± 1.5 | 17.84 ± 1.2 | 13.91 ± 0.99
x1 = 0.2466 | 1083.81 ± 3.1 | 1073.73 ± 2.9 | 1065.05 ± 2.7 | 1057.12 ± 2.6 | 1048.47 ± 2.4 | – | – | – | – | –
x1 = 0.2887 | 1086.11 ± 3.1 | 1075.86 ± 2.9 | 1067.22 ± 2.8 | 1059.03 ± 2.6 | 1050.37 ± 2.5 | 39.28 ± 2.6 | 33.52 ± 2.2 | 28.26 ± 1.9 | 23.09 ± 1.6 | 17.82 ± 1.2
x1 = 0.3459 | 1087.54 ± 3.2 | 1077.13 ± 3 | 1068.55 ± 2.8 | 1060.61 ± 2.7 | 1051.89 ± 2.5 | 41.75 ± 2.7 | 35.73 ± 2.3 | 30.86 ± 2 | 25.45 ± 1.7 | 19.93 ± 1.4
x1 = 0.4127 | 1087.67 ± 3.2 | 1077.14 ± 3 | 1068.64 ± 2.8 | 1061.07 ± 2.7 | 1052.63 ± 2.5 | 43.23 ± 2.8 | 37.33 ± 2.4 | 31.64 ± 2.1 | 25.94 ± 1.7 | 20.12 ± 1.4
x1 = 0.4852 | 1086.69 ± 3.2 | 1076.07 ± 3 | 1067.65 ± 2.8 | 1060.28 ± 2.7 | 1052.39 ± 2.5 | 44.02 ± 2.9 | 37.36 ± 2.4 | 31.41 ± 2.1 | 25.4 ± 1.7 | 19.72 ± 1.3
x1 = 0.5438 | 1085.22 ± 3.2 | 1074.56 ± 3 | 1066.2 ± 2.8 | 1058.66 ± 2.7 | 1051.46 ± 2.5 | – | – | – | – | –
x1 = 0.5842 | 1084.37 ± 3.2 | 1073.69 ± 3 | 1065.37 ± 2.8 | 1057.87 ± 2.7 | 1050.71 ± 2.5 | 43.33 ± 2.8 | 36.22 ± 2.4 | 29.62 ± 2 | 23.17 ± 1.6 | 18.58 ± 1.3
x1 = 0.6438 | 1082.81 ± 3.1 | 1072.11 ± 3 | 1063.85 ± 2.8 | 1056.41 ± 2.6 | 1049.64 ± 2.5 | 42.3 ± 2.7 | 34.92 ± 2.3 | 28.05 ± 1.9 | 21.34 ± 1.4 | 16.15 ± 1.1
x1 = 0.6878 | 1081.6 ± 3.1 | 1070.89 ± 2.9 | 1062.67 ± 2.8 | 1055.27 ± 2.6 | 1048.84 ± 2.5 | – | – | – | – | –
x1 = 0.7439 | 1080.31 ± 3.1 | 1069.59 ± 2.9 | 1061.41 ± 2.8 | 1054.22 ± 2.6 | 1047.82 ± 2.5 | 39.78 ± 2.6 | 32.9 ± 2.2 | 25.58 ± 1.7 | 19.58 ± 1.3 | 14.06 ± 1
x1 = 0.8238 | 1078.68 ± 3.1 | 1068.19 ± 2.9 | 1060.06 ± 2.8 | 1053.44 ± 2.6 | 1047.09 ± 2.5 | 36.28 ± 2.4 | 30.25 ± 2 | 23.38 ± 1.6 | 18.01 ± 1.2 | 12.67 ± 0.91
x1 = 0.8846 | 1077.69 ± 3.1 | 1067.27 ± 2.9 | 1059.5 ± 2.8 | 1052.95 ± 2.7 | 1046.7 ± 2.5 | 33.61 ± 2.2 | 27.11 ± 1.8 | 22.16 ± 1.5 | 16.98 ± 1.2 | 11.26 ± 0.82
x1 = 0.9486 | 1077.17 ± 3.1 | 1066.94 ± 3 | 1059.41 ± 2.8 | 1052.79 ± 2.7 | 1046.54 ± 2.6 | – | – | – | – | –
x1 = 1 | 1076.58 ± 3.1 | 1066.51 ± 3 | 1059.19 ± 2.8 | 1052.64 ± 2.7 | 1046.43 ± 2.6 | 26.58 ± 1.8 | 21.99 ± 1.5 | 17.32 ± 1.2 | 12.86 ± 0.92 | 8.284 ± 0.64
